{
  "source": "patent US9233090B2",
  "about": "“Cysteine and food intake” (Nestec S.A., priority 2010, dated 2016)",
  "type_in_all_cases": "in vivo, rat",
  "key": {"old rats [1]": {"system": "old rats", "test": "Food intake of old rats fed supplemented diets for 14 weeks", "conditions": "for decrease in food intake per week: male Wistar rats, supplemented diet from age 21 months for 14 weeks, linear regression", "source_text": "(§1) A cohort of male Wistar rats born and breed in a non-specific-pathogen-free animal facility (Unité de Nutrition Comparée, INRA Theix) was used for the study. When rats were 18 month old they were weighted monthly to evaluate their body weight change and blood was sampled in order to quantify inflammatory markers (acute phase proteins: α2-macroglobulin and fibrinogen). At the age of 21 months, rats were divided in two groups matched for body weight, body weight loss, and inflammatory status. Rats were fed with supplemented diets, starting at the age of 21 months and for 14 weeks. The cysteine diet consisted in the commercial pelleted diet A04 (SAFE/UAR, Scientific Animal Food and Engineering, Villemoisson-sur-Orge, France) supplemented with 4.0 g of L-cysteine (Sigma) per kg, and the control diet was supplemented with 2.9 g of L-alanine (Jerafrance) per kg (iso-nitrogenous diets). Experimental diets have been prepared at the Unite Préparation Aliments Expérimentaux, INRA Jouy-en-Josas.\nFood intake (FIG. 4) decreased with time and was lower for the alanine diet."}, "[2]": {"test": "Body weight of old rats fed supplemented diets", "conditions": "for Final BW: body weight at end of supplementation; for Initial BW: body weight at start of supplementation (baseline), age 21 months; for BW change: rat, in vivo", "source_text": "as §1\nThe decrease accelerated at the end of the experiment since body weights of the two last weeks were different from each of the previous ones."}, "[3]": {"test": "Skeletal muscle and organ weights of old rats fed supplemented diets", "conditions": "for Colon weight / EDL weight / Gastrocnemius weight / Kidneys weight / Liver weight / Small intestine weight / Soleus weight / Tibialis weight: end of supplementation", "source_text": "as §1"}, "old rats [4]": {"system": "old rats", "test": "Survival of old rats fed supplemented diets (Kaplan-Meier, log-rank test)", "conditions": "male Wistar rats, supplemented diet from age 21 months for 14 weeks; log-rank test=0.054, P=0.816", "source_text": "as §1\nSurvival curves were generated by Kaplan-Meier method (FIG. 2) and compared by the log-rank test in order to analyze the effect of cysteine supplementation on mortality."}},
  "data": [
    {"compound": "C[C@H](N)C(=O)O", "note": "[Alanine, L-alanine, reference compound]", "values": [
      {"measurement": "decrease in food intake per week", "setting": "old rats [1]", "result": 0.96, "unit": "% per week"},
      {"measurement": "Final BW", "setting": "[2]", "result": "595 ± 13", "unit": "g"},
      {"measurement": "Initial BW", "setting": "[2]", "result": "657 ± 10", "unit": "g"},
      {"measurement": "BW change", "setting": "[2]", "result": "−7.03 ± 1.60", "unit": "%/13 wk"},
      {"measurement": "Colon weight", "setting": "[3]", "result": "2.68 ± 0.06", "unit": "g"},
      {"measurement": "EDL weight", "setting": "[3]", "result": "222 ± 4", "unit": "mg"},
      {"measurement": "Gastrocnemius weight", "setting": "[3]", "result": "2.51 ± 0.04", "unit": "g"},
      {"measurement": "Kidneys weight", "setting": "[3]", "result": "4.32 ± 0.19", "unit": "g"},
      {"measurement": "Liver weight", "setting": "[3]", "result": "18.4 ± 0.5", "unit": "g"},
      {"measurement": "Small intestine weight", "setting": "[3]", "result": "11.4 ± 0.3", "unit": "g"},
      {"measurement": "Soleus weight", "setting": "[3]", "result": "177 ± 3", "unit": "mg"},
      {"measurement": "Tibialis weight", "setting": "[3]", "result": "888 ± 16", "unit": "mg"}
    ]},
    {"compound": "N[C@@H](CS)C(=O)O", "note": "[Cysteine, L-cysteine]", "values": [
      {"measurement": "effect on decrease in food intake associated with aging", "setting": "old rats [1]; 4 g cysteine per kg supplemented diet, rats about 22.5 months old", "result": "blunts the decrease in food intake"},
      {"measurement": "decrease in food intake per week", "setting": "old rats [1]", "result": "unchanged"},
      {"measurement": "Final BW", "setting": "[2]", "result": "613 ± 12", "unit": "g"},
      {"measurement": "Initial BW", "setting": "[2]", "result": "661 ± 10", "unit": "g"},
      {"measurement": "BW change", "setting": "[2]", "result": "−6.27 ± 1.18", "unit": "%/13 wk"},
      {"measurement": "mortality rate", "setting": "old rats [4]", "result": "did not change"},
      {"measurement": "liver weight compared with control rats", "setting": "[3]; cysteine supplemented rats vs alanine control", "result": "higher liver weight than control rats"},
      {"measurement": "Colon weight", "setting": "[3]", "result": "2.76 ± 0.07", "unit": "g"},
      {"measurement": "EDL weight", "setting": "[3]", "result": "228 ± 4", "unit": "mg"},
      {"measurement": "Gastrocnemius weight", "setting": "[3]", "result": "2.51 ± 0.04", "unit": "g"},
      {"measurement": "Kidneys weight", "setting": "[3]", "result": "4.31 ± 0.17", "unit": "g"},
      {"measurement": "Liver weight", "setting": "[3]", "result": "20.0 ± 0.4", "unit": "g"},
      {"measurement": "Small intestine weight", "setting": "[3]", "result": "12.0 ± 0.2", "unit": "g"},
      {"measurement": "Soleus weight", "setting": "[3]", "result": "178 ± 4", "unit": "mg"},
      {"measurement": "Tibialis weight", "setting": "[3]", "result": "889 ± 18", "unit": "mg"}
    ]}
  ]
}
